Data set [1] has as its target T1, Pyruvate kinase PKM (Homo sapiens, UniProt P14618). As to the kind of experiment: Activation of full length recombinant human N-terminal His6-tagged PKM2 expressed in Escherichia coli BL21(DE3) using PEP as substrate preincubated for 5 mins followed by substrate addition measured after 90 mins in presence of ADP by Kinase-Glo luminescence assay. On the technique in general: Kinase-Glo reads ATP consumption through a luciferase reaction.

For data set [2], the target named is T1, Pyruvate kinase PKM. As to the kind of experiment: Activation of full length recombinant human N-terminal His6-tagged PKM2 expressed in Escherichia coli BL21(DE3) at 10 ug/ml using PEP as substrate preincubated for 5 mins followed by substrate addition measured after 90 mins in presence of ADP by Kinase-Glo luminescence assay relative to control.
Target sequence in this assay (P14618 2-531 limits assumed): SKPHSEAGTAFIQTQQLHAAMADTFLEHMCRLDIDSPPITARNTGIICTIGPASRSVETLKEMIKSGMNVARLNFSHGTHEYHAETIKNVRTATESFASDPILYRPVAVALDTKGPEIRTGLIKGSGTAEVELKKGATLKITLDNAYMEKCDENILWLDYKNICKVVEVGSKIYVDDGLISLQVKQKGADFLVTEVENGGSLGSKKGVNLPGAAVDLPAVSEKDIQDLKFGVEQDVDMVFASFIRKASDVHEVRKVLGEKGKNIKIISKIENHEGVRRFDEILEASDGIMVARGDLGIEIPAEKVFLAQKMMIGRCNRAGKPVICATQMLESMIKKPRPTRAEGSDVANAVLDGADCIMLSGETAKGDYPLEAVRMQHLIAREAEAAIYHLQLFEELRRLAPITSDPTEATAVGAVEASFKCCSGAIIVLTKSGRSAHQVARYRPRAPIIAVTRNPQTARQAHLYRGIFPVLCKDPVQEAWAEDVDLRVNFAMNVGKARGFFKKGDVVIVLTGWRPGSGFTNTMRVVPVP
Data set [3] concerns the target T1, Pyruvate kinase PKM. As to the kind of experiment: Activation of PKM2 in human A549 cells using PEP as substrate preincubated for 1 hr followed by substrate addition measured after 1 hr in presence of ADP by Kinase-Glo luminescence assay relative to control. In kind it is cell-based.
Target sequence in this assay (P14618 2-531 limits assumed): as above
Data set [4] deals with T1, Pyruvate kinase PKM. As to the kind of experiment: Activation of PKM2 in human A549 cells using PEP as substrate preincubated for 1 hr followed by substrate addition measured after 1 hr in presence of ADP by Kinase-Glo luminescence assay. In kind it is cell-based.
Target sequence in this assay (P14618 whole entry): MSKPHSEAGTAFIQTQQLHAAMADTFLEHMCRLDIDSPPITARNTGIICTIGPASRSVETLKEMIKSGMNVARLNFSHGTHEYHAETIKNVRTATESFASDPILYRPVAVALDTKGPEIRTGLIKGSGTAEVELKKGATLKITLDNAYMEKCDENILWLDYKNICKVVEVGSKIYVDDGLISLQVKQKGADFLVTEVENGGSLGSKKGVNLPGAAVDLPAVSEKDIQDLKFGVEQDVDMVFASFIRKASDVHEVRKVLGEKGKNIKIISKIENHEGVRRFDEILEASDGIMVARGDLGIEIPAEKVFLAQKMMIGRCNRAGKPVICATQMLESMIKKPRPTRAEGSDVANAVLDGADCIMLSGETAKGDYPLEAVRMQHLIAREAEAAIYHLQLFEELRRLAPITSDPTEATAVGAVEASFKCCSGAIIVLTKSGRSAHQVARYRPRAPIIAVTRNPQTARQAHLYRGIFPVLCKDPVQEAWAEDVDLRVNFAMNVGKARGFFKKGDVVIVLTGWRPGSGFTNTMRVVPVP
Another data set has as its system A549. As to the kind of experiment: Growth inhibition of human A549 cells after 72 hrs in presence of serine by CellTiter-Glo luminescent assay. In kind it is functional, cell-based. (ATP-based viability assays read luminescence as a measure of living cells.)
The nature of data set [5]: Stability of the compound. In kind it is physicochemical.

The values below come from ChEMBL document CHEMBL4033691, “Discovery and structure-guided fragment-linking of 4-(2,3-dichlorobenzoyl)-1-methyl-pyrrole-2-carboxamide as a pyruvate kinase M2 activator” (Bioorg Med Chem, 2017).

For orientation: AC50 means the concentration at which the activity in the assay is half-maximal. By Emax is commonly meant the greatest response seen or fitted, relative to the assay's reference.

Activity calls are given as the source filed them. The rule behind the calls is not given here.

Take `O=S(=O)(c1ccc2c(c1)OCCO2)N1CCN(S(=O)(=O)c2c(F)cccc2F)CC1`: on Pyruvate kinase PKM [1], the AC50 was 150 nM. The Emax at Pyruvate kinase PKM [2] was found to be 181%.
On to `Cn1cc(C(=O)c2cccc(Cl)c2Cl)cc1C(=O)NCCNC(=O)c1cc(C(=O)c2cccc(Cl)c2Cl)cn1C`, for which, on Pyruvate kinase PKM [3], the Activity was found to be 598%. In addition, at Pyruvate kinase PKM [4], the AC50 amounted to 188 nM. Further, the Emax at Pyruvate kinase PKM [2] stood at 184%. In addition, in the data set with A549, the “growth inhibition (GI)” value is “inactive”.
Turning to `Cn1cc(C(=O)c2cccc(Cl)c2Cl)cc1C(N)=O`, on Pyruvate kinase PKM [4], the AC50 is more than 100000 nM. For the same molecule, on Pyruvate kinase PKM [1], the AC200 is 26 µM. The Emax on Pyruvate kinase PKM [2] stood at 198%.
On to `Cn1cc(C(=O)c2cccc(Cl)c2Cl)cc1C(=O)NCNC(=O)c1cc(C(=O)c2cccc(Cl)c2Cl)cn1C`, for which the Emax on Pyruvate kinase PKM [2] came out at 194%. For the same molecule, the Stability entry in data set [5] is recorded as “Unstable”.
